Assay results from ChEMBL document CHEMBL1201862, “PubChem BioAssay data set” (2004).
Active and inactive are the calls of the source.

What was measured:
[1] = molecular target: G2/mitotic-specific cyclin-B1 (Homo sapiens, UniProt P14635); test: Counterscreen assay for inhibitors of Wee1 degradation: dose response cell-based assay to identify inhibitors of cyclin B degradation. [Related pubchem assays: 1410, 1321 ]; type: functional
[2] = molecular target: Wee1-like protein kinase (Homo sapiens, UniProt P30291); test: Dose Response Cell-based Assay for Inhibitors of Wee1 Degradation. [Related pubchem assays: 1410, 1321 ]; type: functional
[3] = Luminescence-based cell-based high throughput dose response assay to identify activators of the DAF-12 from the parasite S. stercoralis (ssDAF-12).; type: functional
[4] = molecular target: T1, Oxysterols receptor LXR-beta (Homo sapiens, UniProt P55055); test: LXR agonists, Gal4 luciferase reporter, dose response, counter-screen for ssDAF-12 agonist project, cell-based, luminescence, HEK293, S. stercoralis campaign (AID 720737); type: functional; conditions: read-out: IC50 (the source's name)
T1 sequence (P55055 whole entry): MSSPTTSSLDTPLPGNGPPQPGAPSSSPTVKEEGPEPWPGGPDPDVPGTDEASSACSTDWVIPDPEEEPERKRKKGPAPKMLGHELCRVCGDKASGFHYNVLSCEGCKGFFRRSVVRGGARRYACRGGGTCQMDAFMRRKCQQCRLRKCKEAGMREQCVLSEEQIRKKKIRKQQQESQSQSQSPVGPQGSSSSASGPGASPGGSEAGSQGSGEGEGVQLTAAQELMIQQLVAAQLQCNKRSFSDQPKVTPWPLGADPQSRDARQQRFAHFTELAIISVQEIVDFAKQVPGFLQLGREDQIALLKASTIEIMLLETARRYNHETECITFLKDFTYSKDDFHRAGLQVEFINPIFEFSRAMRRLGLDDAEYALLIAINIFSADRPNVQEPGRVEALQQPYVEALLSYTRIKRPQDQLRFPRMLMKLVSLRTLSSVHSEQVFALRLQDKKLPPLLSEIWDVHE

[5] = molecular target: T1, Oxysterols receptor LXR-beta; type: functional, cell-based
[6] = cells
[7] = molecular target: T2, Estrogen receptor (Homo sapiens, UniProt P03372); test: potentiators of ERα–SRC-1 coactivator binding, dose response, biochemical, TR-FRET, ERα LBD (AID 737)
T2 sequence (P03372 whole entry): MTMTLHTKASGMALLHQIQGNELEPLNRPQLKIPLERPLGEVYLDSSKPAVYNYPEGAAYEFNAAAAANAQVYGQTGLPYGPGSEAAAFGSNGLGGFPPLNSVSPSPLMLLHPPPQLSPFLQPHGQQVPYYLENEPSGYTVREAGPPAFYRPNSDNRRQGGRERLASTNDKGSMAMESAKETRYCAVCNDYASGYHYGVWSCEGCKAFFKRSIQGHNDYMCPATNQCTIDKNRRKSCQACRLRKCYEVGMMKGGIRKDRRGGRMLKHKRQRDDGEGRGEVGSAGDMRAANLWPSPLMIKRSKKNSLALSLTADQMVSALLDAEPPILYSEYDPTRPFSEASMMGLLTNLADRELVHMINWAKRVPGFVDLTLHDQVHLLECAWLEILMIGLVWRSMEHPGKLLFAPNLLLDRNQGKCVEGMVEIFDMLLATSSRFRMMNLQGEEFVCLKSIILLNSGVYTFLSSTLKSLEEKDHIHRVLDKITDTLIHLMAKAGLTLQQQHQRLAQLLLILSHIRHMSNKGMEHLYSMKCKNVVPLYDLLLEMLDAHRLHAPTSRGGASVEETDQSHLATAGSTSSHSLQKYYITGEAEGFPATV

[8] = system: Streptococcus sp. 'group A'; test: growth inhibition of control SK(-) GAS strain, dose response, counter-screen for streptokinase expression inhibitor project, luminescence, kanamycin, BacTiterGlo, confirmation (AID 1900); type: functional, organism-based
[9] = molecular target: Serine/threonine-protein phosphatase PP1-alpha catalytic subunit (Homo sapiens, UniProt P62136); test: PP1 phosphatase inhibitors, dose response, biochemical, fluorescence (AID 2403);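 note: phosphatase turnover of OMFP into fluorescent 3-O-methylfluorescein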
[10] = molecular target: T3, Streptokinase A (Streptococcus pyogenes serotype M1, UniProt P10520); test: S. pyogenes streptokinase expression inhibitors, potency, dose response, plasminogen activation absorbance, OD405 (AID 1914); type: functional, Streptococcus pyogenes M1 GAS;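 note: secreted streptokinase activity via plasminogen activation per viability signal from cell pellet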
T3 sequence (P10520 whole entry): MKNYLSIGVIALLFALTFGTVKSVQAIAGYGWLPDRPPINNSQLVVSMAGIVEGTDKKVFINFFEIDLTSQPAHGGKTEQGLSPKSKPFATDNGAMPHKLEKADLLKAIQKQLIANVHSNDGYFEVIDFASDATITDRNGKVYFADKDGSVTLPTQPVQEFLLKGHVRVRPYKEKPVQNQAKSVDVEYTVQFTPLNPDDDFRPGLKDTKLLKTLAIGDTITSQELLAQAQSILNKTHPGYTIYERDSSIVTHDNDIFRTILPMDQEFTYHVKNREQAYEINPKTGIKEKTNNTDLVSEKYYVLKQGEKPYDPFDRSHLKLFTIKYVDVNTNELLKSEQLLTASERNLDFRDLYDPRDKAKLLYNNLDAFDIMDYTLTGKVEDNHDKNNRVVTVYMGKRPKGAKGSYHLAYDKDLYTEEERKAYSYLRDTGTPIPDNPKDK

[11] = molecular target: Serine/threonine-protein phosphatase (Homo sapiens, UniProt Q9BPW0); test: Counterscreen for inhibitors of PP1: fluorescence-based biochemical high throughput dose response assay to identify inhibitors of Protein Phosphatase 5 (PP5). [Related pubchem assays: 2034 (Summary (PP5 inhibitors)), 1987 (PP5 inhibitors in singlate), 2235 (PP1 inhibitors in singlate)]
[12] = growth suppression of PTEN-null colon cells, dose response, cell-based, HCT116 PTEN knockout (AID 1047); type: functional;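 note: HCT116 colon tumor cells with PTEN knocked out; cells exposed to compound for 60 hours before readout; potency for loss of cell viability measured by luminescence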
[13] = growth suppression of beta-catenin-knockout colon cells, dose response, cell-based, HCT116, human colon tumor (AID 1045); type: functional;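 note: HCT116 colon tumor cells with beta catenin knocked out; cells exposed to compound for 60 hours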
[14] = system: Streptococcus; test: Group A Streptococcus viability loss, dose response, counter-screen for streptokinase expression inhibitor project, luminescence, BacTiterGlo (AID 1915); type: functional, organism-based;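 note: potency for reduction of bacterial viability or growth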
[15] = molecular target: T4, Alkaline phosphatase, tissue-nonspecific isozyme (Homo sapiens, UniProt P05186)
T4 sequence (P05186 whole entry): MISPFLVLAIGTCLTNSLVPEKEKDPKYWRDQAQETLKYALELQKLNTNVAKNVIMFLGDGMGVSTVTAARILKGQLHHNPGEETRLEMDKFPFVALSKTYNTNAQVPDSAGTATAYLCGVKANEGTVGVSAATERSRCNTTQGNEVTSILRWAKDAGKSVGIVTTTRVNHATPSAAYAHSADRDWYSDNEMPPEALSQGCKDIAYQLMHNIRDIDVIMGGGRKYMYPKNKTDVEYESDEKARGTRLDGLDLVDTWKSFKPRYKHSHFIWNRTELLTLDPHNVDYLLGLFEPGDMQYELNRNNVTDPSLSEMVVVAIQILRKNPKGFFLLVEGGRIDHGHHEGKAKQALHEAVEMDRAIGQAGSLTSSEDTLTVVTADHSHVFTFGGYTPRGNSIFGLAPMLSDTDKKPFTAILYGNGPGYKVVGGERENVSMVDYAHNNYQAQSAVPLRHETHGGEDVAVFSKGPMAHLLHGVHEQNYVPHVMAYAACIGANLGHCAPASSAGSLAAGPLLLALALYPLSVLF

[16] = M. tuberculosis H37Rv growth inhibitors, H37Rv strain (AID 1626); type: functional
[17] = system: HEK293; test: PMA/Ionomycin induced NF-kB luciferase assay in 293- NF-kB-Luc stable cells. [Related pubchem assays: 1299, 1270, 1295, 1375, 1287, 1281, 1293, 1291, 1289, 1280, 465, 1364, 1282, 1372, 1365, 1370, 1367, 1366, 1269, 1373, 1292, 1290, 1302, 1371, 1283, 1271, 1294, 1374, 1368, 1369 ]; type: functional, cell-based; conditions: Homo sapiens
[18] = molecular target: Luciferin 4-monooxygenase (Photinus pyralis, UniProt P08659); test: In vitro luciferase assay using purified luciferase. [Related pubchem assays: 1299, 1270, 1295, 1375, 1287, 1281, 1293, 1291, 1289, 1280, 465, 1364, 1282, 1372, 1365, 1370, 1367, 1366, 1266, 1373, 1292, 1290, 1302, 1371, 1283, 1271, 1294, 1374, 1368, 1369 ]
[19] = system: HEK293; test: Cytotoxicity assay in HEK293 cells. [Related pubchem assays (depositor defined):AID1266, AID1269, AID1270, AID1271, AID1280, AID1281, AID1282, AID1283, AID1287, AID1289, AID1290, AID1291, AID1292, AID1293, AID1294, AID1295, AID1299, AID1302, AID1364, AID1365, AID1366, AID1367, AID1369, AID1370, AID1371, AID1372, AID1373, AID1374, AID1375, AID1384 …; type: functional, cell-based; conditions: Homo sapiens
[20] = molecular target: Neuropeptide Y receptor type 1 (Homo sapiens, UniProt P25929); type: functional;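 note: HEK293 cells with a CNG channel challenged with NPY then isoproterenol; potency as antagonist that reverses NPY suppression of cAMP signal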
[21] = molecular target: Neuropeptide Y receptor type 2 (Homo sapiens, UniProt P49146); type: functional, cell-based;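 note: HEK293 cells expressing the receptor and a CNG channel; stimulus was NPY near EC95 followed by isoproterenol to raise cAMP; antagonist potency measured as restoring cAMP signal that NPY suppresses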
[22] = molecular target: Peroxisome proliferator-activated receptor gamma/Nuclear receptor coactivator 2 (Homo sapiens, UniProt P37231); type: functional;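 note: agonist potency for raising coactivator recruitment to the receptor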
[23] = molecular target: Peroxisome proliferator-activated receptor gamma/Nuclear receptor coactivator 1 (Homo sapiens, UniProt P37231); type: functional;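 note: agonist potency as compounds enhance coactivator SRC-1 recruitment to PPARgamma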
[24] = molecular target: Peroxisome proliferator-activated receptor gamma/Nuclear receptor coactivator 3 (Homo sapiens, UniProt P37231); type: functional;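 note: agonist potency for raising coactivator recruitment to the receptor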
[25] = system: Vero; test: cytotoxicity of synthesized analogs in Vero 76, SAR follow-up, cytotoxicity control for West Nile virus antiviral project, Vero 76 cells (AID 2414); type: functional; conditions: Chlorocebus sabaeus
[26] = system: Vero; test: cytotoxicity of synthesized analogs in Vero cells, SAR follow-up, cytotoxicity control for West Nile virus antiviral project, cell-based, set II (AID 2402); type: functional; conditions: Chlorocebus sabaeus
[27] = system: Vero; test: Vero E6 cell cytotoxicity, SAR follow-up, cytotoxicity control for West Nile virus antiviral project, synthesized analogs (AID 2244); type: functional; conditions: Chlorocebus sabaeus
[28] = A Cell Based Assay for the Identification of Probe candidate Compounds with Anti- Venezuelan Equine Encephalitis virus. [Related pubchem assays: 2409, 2419, 1621, 2238, 2405, 2024, 2065, 2402, 2414, 1635, 1650, 2244 ]; type: functional
[29] = molecular target: Cytochrome P450 2D6 (Homo sapiens, UniProt P10635); test: qHTS Assay for Inhibitors and Substrates of Cytochrome P450 2D6. [Related pubchem assays: 410 ]; type: ADME; conditions: read-out: Potency
[30] = molecular target: Cytochrome P450 3A4 (Homo sapiens, UniProt P08684); conditions: Potency;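 note: confirmatory qHTS run detecting inhibitors and substrates of CYP3A4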
[31] = molecular target: Aspartyl aminopeptidase (Plasmodium falciparum 3D7, UniProt Q8I2J3)
[32] = molecular target: Procathepsin L (Homo sapiens, UniProt P07711)
[33] = HEp-2 cell cytotoxicity, dose response, cytotoxicity control for RSV inhibitor project, HTS (AID 2410); type: functional; conditions: human respiratory syncytial virus
[34] = inhibitors of Bluetongue virus cytopathic effect, confirmation, arbovirus, BSR cells (AID 1250); type: functional;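 note: protection from viral cytopathic effect measured as cell viability by ATP luminescence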

Sequence of Wee1-like protein kinase (P30291 whole entry): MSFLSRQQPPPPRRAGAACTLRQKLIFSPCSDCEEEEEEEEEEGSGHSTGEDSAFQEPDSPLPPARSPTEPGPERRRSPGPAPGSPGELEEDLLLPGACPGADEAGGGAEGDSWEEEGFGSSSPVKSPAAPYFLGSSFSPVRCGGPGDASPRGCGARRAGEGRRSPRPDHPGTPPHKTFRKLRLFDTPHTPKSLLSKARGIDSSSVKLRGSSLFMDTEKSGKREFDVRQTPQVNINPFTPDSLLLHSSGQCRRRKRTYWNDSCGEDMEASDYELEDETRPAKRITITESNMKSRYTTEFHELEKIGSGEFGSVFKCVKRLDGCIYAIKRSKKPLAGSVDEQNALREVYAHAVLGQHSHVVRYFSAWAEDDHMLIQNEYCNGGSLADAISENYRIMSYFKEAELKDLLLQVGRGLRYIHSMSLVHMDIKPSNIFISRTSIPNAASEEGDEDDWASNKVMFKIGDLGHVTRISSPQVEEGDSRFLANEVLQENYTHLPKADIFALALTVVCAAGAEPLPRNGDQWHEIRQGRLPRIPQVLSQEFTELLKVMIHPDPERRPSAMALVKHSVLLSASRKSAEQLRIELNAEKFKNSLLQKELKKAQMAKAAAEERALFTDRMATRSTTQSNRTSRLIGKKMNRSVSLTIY
Sequence of Peroxisome proliferator-activated receptor gamma/Nuclear receptor coactivator 1 (P37231 whole entry): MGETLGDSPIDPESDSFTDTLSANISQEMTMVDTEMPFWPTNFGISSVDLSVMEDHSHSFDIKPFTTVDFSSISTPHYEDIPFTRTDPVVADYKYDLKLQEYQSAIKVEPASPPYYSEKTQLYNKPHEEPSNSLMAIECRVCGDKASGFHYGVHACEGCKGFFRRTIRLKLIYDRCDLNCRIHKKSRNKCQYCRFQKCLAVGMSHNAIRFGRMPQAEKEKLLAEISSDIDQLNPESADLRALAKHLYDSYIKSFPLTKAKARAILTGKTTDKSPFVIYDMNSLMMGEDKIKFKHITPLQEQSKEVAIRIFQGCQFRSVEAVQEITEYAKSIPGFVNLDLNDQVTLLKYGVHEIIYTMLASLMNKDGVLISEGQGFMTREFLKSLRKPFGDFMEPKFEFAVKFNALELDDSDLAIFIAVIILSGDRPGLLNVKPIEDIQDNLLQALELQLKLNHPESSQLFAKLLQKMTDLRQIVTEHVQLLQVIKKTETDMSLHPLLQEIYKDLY
Sequence of Peroxisome proliferator-activated receptor gamma/Nuclear receptor coactivator 1 (Q15788 whole entry, further chain): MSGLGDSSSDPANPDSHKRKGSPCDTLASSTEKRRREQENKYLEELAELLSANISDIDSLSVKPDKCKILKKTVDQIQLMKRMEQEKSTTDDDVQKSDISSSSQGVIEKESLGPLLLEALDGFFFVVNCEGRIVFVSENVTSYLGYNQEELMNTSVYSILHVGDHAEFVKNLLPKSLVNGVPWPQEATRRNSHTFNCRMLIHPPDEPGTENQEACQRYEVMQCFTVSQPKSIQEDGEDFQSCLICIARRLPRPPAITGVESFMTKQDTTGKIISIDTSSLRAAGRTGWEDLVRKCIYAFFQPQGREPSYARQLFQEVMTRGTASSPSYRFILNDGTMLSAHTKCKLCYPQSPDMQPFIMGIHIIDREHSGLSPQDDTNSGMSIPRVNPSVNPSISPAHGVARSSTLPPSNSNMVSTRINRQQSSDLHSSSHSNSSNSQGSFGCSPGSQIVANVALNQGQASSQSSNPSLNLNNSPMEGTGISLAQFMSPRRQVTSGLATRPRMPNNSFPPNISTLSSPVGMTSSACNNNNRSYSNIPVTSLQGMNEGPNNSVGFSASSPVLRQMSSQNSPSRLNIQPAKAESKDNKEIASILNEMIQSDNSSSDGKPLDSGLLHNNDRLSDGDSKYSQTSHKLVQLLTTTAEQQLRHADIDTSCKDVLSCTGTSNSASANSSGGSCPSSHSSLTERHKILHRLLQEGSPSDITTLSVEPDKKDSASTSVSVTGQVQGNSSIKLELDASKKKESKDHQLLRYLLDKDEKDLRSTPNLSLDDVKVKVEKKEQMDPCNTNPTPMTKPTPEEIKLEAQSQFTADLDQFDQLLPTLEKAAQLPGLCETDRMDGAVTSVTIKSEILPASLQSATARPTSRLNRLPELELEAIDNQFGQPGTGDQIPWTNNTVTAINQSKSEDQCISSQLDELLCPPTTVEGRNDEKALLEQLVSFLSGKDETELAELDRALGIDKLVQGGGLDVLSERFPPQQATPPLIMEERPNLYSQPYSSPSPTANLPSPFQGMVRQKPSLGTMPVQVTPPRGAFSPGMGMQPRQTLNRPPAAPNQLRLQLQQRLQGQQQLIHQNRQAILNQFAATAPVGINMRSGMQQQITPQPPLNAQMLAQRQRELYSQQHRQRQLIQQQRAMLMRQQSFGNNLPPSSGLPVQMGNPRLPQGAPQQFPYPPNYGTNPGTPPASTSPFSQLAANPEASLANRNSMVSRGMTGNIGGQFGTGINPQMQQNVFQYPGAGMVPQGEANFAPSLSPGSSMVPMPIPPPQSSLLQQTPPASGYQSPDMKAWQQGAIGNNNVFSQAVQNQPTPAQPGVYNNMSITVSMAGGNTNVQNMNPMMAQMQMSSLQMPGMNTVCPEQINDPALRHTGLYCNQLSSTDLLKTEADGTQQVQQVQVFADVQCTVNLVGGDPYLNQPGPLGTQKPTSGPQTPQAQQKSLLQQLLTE
Sequence of Peroxisome proliferator-activated receptor gamma/Nuclear receptor coactivator 2 (P37231 whole entry): as the sequence (P37231 whole entry) above
Sequence of Peroxisome proliferator-activated receptor gamma/Nuclear receptor coactivator 2 (Q15596 whole entry, further chain): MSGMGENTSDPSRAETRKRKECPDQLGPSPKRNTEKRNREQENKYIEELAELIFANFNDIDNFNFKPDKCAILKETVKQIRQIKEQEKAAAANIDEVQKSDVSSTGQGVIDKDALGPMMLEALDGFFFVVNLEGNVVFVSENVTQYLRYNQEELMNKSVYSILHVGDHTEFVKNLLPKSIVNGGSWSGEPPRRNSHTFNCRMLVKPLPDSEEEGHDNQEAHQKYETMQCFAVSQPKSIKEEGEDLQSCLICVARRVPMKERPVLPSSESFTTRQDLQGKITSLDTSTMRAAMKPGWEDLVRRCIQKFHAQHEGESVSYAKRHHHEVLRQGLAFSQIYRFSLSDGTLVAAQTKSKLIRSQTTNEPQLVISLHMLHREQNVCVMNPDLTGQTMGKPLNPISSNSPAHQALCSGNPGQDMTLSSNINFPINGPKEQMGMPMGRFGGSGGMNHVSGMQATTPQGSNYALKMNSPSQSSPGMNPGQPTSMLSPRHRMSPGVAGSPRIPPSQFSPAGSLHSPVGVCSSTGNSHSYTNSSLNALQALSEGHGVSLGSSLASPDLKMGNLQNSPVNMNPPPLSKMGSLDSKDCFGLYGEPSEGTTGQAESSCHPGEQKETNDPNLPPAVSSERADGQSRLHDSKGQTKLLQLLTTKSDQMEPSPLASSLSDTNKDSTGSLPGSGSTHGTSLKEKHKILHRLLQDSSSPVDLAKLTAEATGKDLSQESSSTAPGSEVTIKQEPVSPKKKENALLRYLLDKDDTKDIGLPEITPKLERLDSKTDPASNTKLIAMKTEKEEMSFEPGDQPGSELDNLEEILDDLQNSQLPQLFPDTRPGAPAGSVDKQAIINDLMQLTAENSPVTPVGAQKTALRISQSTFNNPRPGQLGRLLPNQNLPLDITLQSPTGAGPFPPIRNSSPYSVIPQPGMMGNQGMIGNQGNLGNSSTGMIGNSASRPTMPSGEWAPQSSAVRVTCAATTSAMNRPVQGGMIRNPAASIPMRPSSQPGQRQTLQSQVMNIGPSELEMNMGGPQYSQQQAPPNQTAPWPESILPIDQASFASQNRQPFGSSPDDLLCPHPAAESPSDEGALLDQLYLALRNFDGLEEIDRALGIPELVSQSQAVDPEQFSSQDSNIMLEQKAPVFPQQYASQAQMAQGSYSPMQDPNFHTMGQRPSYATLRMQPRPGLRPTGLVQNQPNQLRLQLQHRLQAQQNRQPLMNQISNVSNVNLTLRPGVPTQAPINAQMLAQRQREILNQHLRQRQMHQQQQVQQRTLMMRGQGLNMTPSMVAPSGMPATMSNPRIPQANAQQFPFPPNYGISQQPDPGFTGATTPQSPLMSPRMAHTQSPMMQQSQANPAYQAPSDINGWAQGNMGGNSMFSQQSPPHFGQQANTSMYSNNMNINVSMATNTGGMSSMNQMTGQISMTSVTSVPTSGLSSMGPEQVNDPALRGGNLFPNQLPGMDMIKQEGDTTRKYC
Sequence of Neuropeptide Y receptor type 2 (P49146 whole entry): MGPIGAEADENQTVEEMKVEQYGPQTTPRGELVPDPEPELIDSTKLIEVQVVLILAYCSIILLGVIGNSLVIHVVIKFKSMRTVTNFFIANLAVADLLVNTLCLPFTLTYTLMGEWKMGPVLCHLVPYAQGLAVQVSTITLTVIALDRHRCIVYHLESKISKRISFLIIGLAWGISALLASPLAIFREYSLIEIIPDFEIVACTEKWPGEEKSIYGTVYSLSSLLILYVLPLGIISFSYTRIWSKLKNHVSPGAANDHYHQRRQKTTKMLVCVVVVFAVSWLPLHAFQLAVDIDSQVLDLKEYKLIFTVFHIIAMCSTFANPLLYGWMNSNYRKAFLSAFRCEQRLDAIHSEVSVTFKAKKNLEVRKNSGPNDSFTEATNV

Structure (SMILES): CC(=O)Nc1ccc(/C=N/Nc2nc3ccccc3s2)cc1
- EC50 [1]: > 49.7 µM (not active)
- EC50 [2]: > 49.7 µM (not active)
- IC50 [3]: > 67.5 µM (inactive)
- EC50 [4]: > 67.5 µM (inactive)
- EC50 [5]: > 67.5 µM (inactive)
- EC50 [6]: > 67.5 µM (inactive)

Structure (SMILES): O=C(Cn1ncc2c(=O)oc3ccccc3c21)Nc1nc2ccccc2s1
- EC50 [7]: 6.23 µM (active)

Structure (SMILES): COc1cnc(-c2ccccn2)nc1Sc1ccc(Cl)cc1
- EC50 [8]: 9.35 µM (active)
- IC50 [9]: 6.47 µM (active)
- EC50 [10]: > 150 µM (not active)
- IC50 [11]: > 67 µM (not active)
- EC50 [12]: 21.6 µM (active)
- EC50 [13]: 18.6 µM (active)
- EC50 [14]: 15.3 µM (active)

Structure (SMILES): Cn1cc(Cl)c(C(=O)NNC(=S)NC2CCCCC2)n1
- EC50 [15]: 41 µM (active)

Structure (SMILES): O=C(COC(=O)/C=C/c1nc2ccccc2s1)Nc1cccc(Cl)c1Cl
- IC50 [16]: > 100 µM (active)

Structure (SMILES): COc1ccc(/C=N/NC(=O)c2n[nH]c3c2CCC3)cc1O
- EC50 [17]: 4.21 µM (not active)
- EC50 [18]: > 8 µM (not active)
- EC50 [19]: > 8 µM (inactive)

Structure (SMILES): COc1ccccc1OCCCCN1CCN(C(c2ccccc2)c2ccccc2)CC1
- IC50 [20]: > 35 µM (not active)
- IC50 [21]: > 35 µM (not active)

Structure (SMILES): Cc1cc(=O)[nH]c2c1c(C)nn2C1CCCC1
- EC50 [22]: > 79.4 µM (not active)
- EC50 [23]: > 79.4 µM (not active)
- EC50 [24]: > 79.4 µM (not active)

Structure (SMILES): COc1cccc(C(NC(=O)c2ccccc2)c2ccc3cccnc3c2O)c1 (centres undefined)
- CC50 [25]: 6.07 µM (active)
- CC50 [26]: 2.2 µM (active)
- CC50 [27]: 1.94 µM (active)
- IC50 [28]: 5.63 µM (active)

Structure (SMILES): Cc1nc(/N=N\c2ccc(C(=O)O)cc2)c(COP(=O)(O)O)c(C=O)c1O
- AC50 [29]: 39.8 µM (inconclusive)
- AC50 [30]: 10 µM (inconclusive)

Structure (SMILES): COc1ccc(Cl)cc1NC(=O)Nn1cnnc1
- IC50 [31]: 0.832 µM (active)
- IC50 [32]: > 59.6 µM (not active)

Structure (SMILES): COc1ccc(-c2nc(NC(=O)c3nnc(O)c4ccccc34)sc2C)cc1
- CC50 [33]: 40.5 µM (active)
- IC50 [34]: > 100 µM (active)
